In patent US20070099888A1, “Inflammation Inhibitor Comprising Zinc Salt of Acylamino Acid” (priority 2004, published 2007):

These molecules were tested on AP-1 (assay: Effect of the zinc salt of acylamino acid on AP-1 activation by ultraviolet light (gel shift assay)). Settings: human dermal fibroblasts; 50 μM test compound added 18 hours before UVA 20 J/cm2; nuclear protein collected after 4 to 5 hours.
Assay type: cell-based
Experimental: After 18 hours, the culture medium was replaced with a phenol red-free medium. By using […]-80 (manufactured by Toshiba Medical Supply Co., Ltd.), the fibroblasts were irradiated with ultraviolet light (UVA: 20 J/cm2). After 4 to 5 hours, the cells were collected, and a nuclear protein was extracted by a standard method. With regard to the obtained nuclear protein, activated AP-1 was detected by a gel shift assay. By measuring the radioactivity value of the AP-1 band using a bioimaging analyzer, BAS2000 (manufactured by Fuji Film Co., Ltd.), the amount of AP-1 was quantified. The inhibition ratio of activation of AP-1 of the test compound was calculated by the following formula. […] A1: radioactivity value of AP-1 band with addition of test compound […] A3: radioactivity value of AP-1 band without addition of test compound and without ultraviolet irradiation

| Structure (SMILES) | Inhibition ratio of activation of AP-1 [%] |
| --- | --- |
| CCCCCCCCCCCC(=O)[O-].CCCCCCCCCCCC(=O)[O-].[Zn+2] [Zinc salt of lauric acid] | 9.1 |
| N[C@@H](CCC(=O)[O-])C(=O)[O-].[Zn+2] [Zinc salt of L-glutamic acid] | 2.4 |
| CCCCCCCCCCCC(=O)N[C@@H](CCC(=O)[O-])C(=O)[O-].[Zn+2] [Zinc salt of N-lauroyl-L-glutamic acid] | 89.6 |
| CCCCCCCCCCCC(=O)N[C@@H](Cc1c[nH]cn1)C(=O)[O-].CCCCCCCCCCCC(=O)N[C@@H](Cc1c[nH]cn1)C(=O)[O-].[Zn+2] [Zinc salt of N-lauroyl-L-histidine] | 54.8 |
| CCCCCCCCCCCC(=O)NCC(=O)[O-].CCCCCCCCCCCC(=O)NCC(=O)[O-].[Zn+2] [Zinc salt of N-lauroyl glycine] | 59.2 |
| NCC(=O)[O-].NCC(=O)[O-].[Zn+2] [Zinc salt of glycine] | −72.8 |
